Key:
A673 = experiment: In vitro high-throughput screen of FDA-approved drug library (CellTiter-Glo); format: cell-based; details: 1 μmol/L drug, 72 hours
Protocol: (§1) We screened, in parallel to the three computational approaches, an FDA-approved drug library containing 2,316 drugs (1,536 unique chemical entities). […] The drug screening study protocol employed is summarized in Supplementary Table S1.
(§2) Cells were grown to 80–90% confluence, harvested and aliquoted into 384-well plates (black μClear microplates, Greiner bio-one, Germany) at concentrations of 750–1,500 cells per well in a total volume of 25 μl/well using a Matrix Wellmate (Thermo Scientific). Cells were cultured for 72 hours in a 5% CO2 atmosphere at 37°C. Aliquots of 25 μl CellTiter-Glo® Reagent (Promega) were added directly to each well, the plates were incubated at room temperature for 20 min and the luminescence signal was measured according to the manufacturer's protocol. The measurements were made using Infinite® M200 Pro plate reader (Tecan, Switzerland). […] Data were normalized to percentage inhibition. […]
(§3) (A) Color scale for drug inhibition values. […]

Hs 919.T. = experiment: as above; format: cell-based; details: 1 μmol/L drug, 72 hours, control cell line
Protocol: as §1, §2, §3

RD-ES = experiment: as above; format: cell-based; details: 1 μmol/L drug, 72 hours
Protocol: as §1, §2, §3

SK-ES-1 = experiment: as above; format: cell-based; details: 1 μmol/L drug, 72 hours
Protocol: as §1, §2, §3

[1] = Formulation and PK studies of auranofin (blood gold, ICPMS); format: in vivo, BALB/c mice
Protocol: Ridaura® (auranofin) is typically delivered orally (capsules containing 3 mg auranofin) and has been repurposed in several clinical trials with limited results (i.e., clinicaltrials.gov identifier: NCT01419691, NCT02126527, and NCT02126527). […] Additionally, the ability to increase the dose of auranofin to achieve higher blood concentrations of gold was limited by dose-limiting gastrointestinal side effects (diarrhea, loose stools, nausea, vomiting and abdominal cramps). For our studies we dosed BALB/c mice orally at 10 mg/Kg with different formulations of auranofin suspensions prepared in 0.5% hydroxypropyl methyl cellulose to help assure dose uniformity. We compared the ground contents of Ridaura® capsules, the ground pure auranofin drug substance, auranofin suspension containing 0.5% sodium lauryl sulfate (a surfactant), auranofin suspensions with the pH adjusted to pH = 1, 4 and 7, auranofin suspension dosed into fasted versus high fat diet mice and finally a solution of auranofin prepared in 5% dimethyl sulfoxide (DMSO) with a pH = 1. Pharmacokinetic studies were conducted on all of these formulation variations. Blood samples from 3 mice at each time point (0, 1, 2, 4, 8, 12, 24, 48 and 96 hours) and the whole blood was assayed by ICPMS for gold.
We additionally studied dose accumulation of the gold by comparing a formulation of Ridaura® capsule contents as described above and dosing at 10 mg/Kg single dose versus dosing the mice once daily for 5 days. The PK study compared the gold content in whole blood samples as described above for the single dose versus the gold content in whole blood samples from the multidose arm with whole blood collected at the end of each 24 hour dosing period before the next dose (24, 48, 72, 96 and 120 hours) and then whole blood collected every 24 hours for 5 additional days (144, 168, 192, 216 and 240 hours) and assayed for gold content. The results of these formulation and PK studies are shown in Supplementary Table S2.
These findings led us to develop and assess injectable (i.v. and i.p.) formulations of auranofin. By defining maximum tolerated dose (MTD) following i.v. and i.p. administration of solution and suspension formulations of auranofin, our intent was to evaluate auranofin alone and in combination with ganetespib at MTD in mouse xenograft studies using the more convenient i.p. route of administration. Following administration of the solution formulation of auranofin i.v. and i.p., the maximum tolerated dose was estimated at 1 mg/kg and 6 mg/kg, respectively. Following a single i.p. suspension dose of auranofin, the maximum tolerated dose was 16 mg/kg. This dose was reduced to 12 mg/kg and dose tolerance was evaluated after 5 daily doses of auranofin suspension i.p. to determine the effects of the accumulation of gold in the blood due to the slow elimination of gold. Based on the i.p. suspension dose tolerance studies, the auranofin suspension formulation and dose level of 12 mg/kg was selected for evaluation in xenograft mouse studies.

[2] = mice, 18 months, cited from earlier work
[3] = parameters: method as in ref 19 (a number printed in a supplementary file, which may have a reference list of its own: not looked up in the article's list); details: cited from earlier work
[4] = parameters: method as in ref 19 (a number printed in a supplementary file, which may have a reference list of its own: not looked up in the article's list); details: 0.625 - 10 mg gold/kg p.o.; cited from earlier work
[5] = Suspension, single 10 mg/kg Oral

## CC(=O)OC[C@H]1O[C@@H]([S-])[C@H](OC(C)=O)[C@@H](OC(C)=O)[C@@H]1OC(C)=O.CCP(CC)CC.[Au+] [Auranofin, auranofin]
A673
  % Inhibition A673: 98%
Hs 919.T.
  % Inhibition Hs 919.T.: < 50%
RD-ES
  % Inhibition RD-ES: 100%
SK-ES-1
  % Inhibition SK-ES-1: 99%
[1]; Solution, five daily 4 mg/kg IP
  Cmax: 10384 ng/mL
[1]; Solution, single 4 mg/kg IP
  AUC (0 to ∞): 210.336 µg·h/mL
  Cmax: 4071 ng/mL
  Half Life: 29.7 h
  Tmax: 1 h
[1]; Suspension, five daily 10 mg/kg Oral
  Cmax: 5780 ng/mL
[1]; [5]
  AUC (0 to ∞): 187.7 µg·h/mL
  Cmax: 3680 ng/mL
  Half Life: 28.4 h
  Tmax: 24 h
[1]; Suspension, single 12 mg/kg IP
  AUC (0 to ∞): 550.846 µg·h/mL
  Cmax: 13068 ng/mL
  Half Life: 26.4 h
  Tmax: 1 h
[1]; oral 10 mg/kg, various suspensions and a solution
  effect of oral formulation variations on amount of gold absorbed: unable to alter the amount of auranofin (gold) absorbed
[2]; oral 1, 3 and 9 mg/kg/day
  instances of tumors above controls: no statistica ll y significant increase
[2]; oral 1, 3 and 6-9 mg/kg/day
  tumor findings: increase in benign
[3]; rat tissues
  tissue gold concentration: highest in the kidneys
[3]; rat
  absorption after oral dosing: 19%
  blood gold in plasma proteins: 35%
  blood gold in red blood cells: 65%
  urinary excretion: 10%
[3]; single oral dose, within 21 days, rat
  elimination in feces: 79%
[4]
  suboptimal delayed hypersensitivity response: stimulatory effect

Source: publication PMC5354814, “In silico and in vitro drug screening identifies new therapeutic approaches for Ewing sarcoma” (Oncotarget, 2016)
